# Experiments:
# giant foxtail = experiment: Test B pre-/postemergence herbicide test; type: in vivo, Setaria faberi
# Summary of the method: (§1)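 Pre: seeds sown, then sprayed. Post: 1–4-leaf plants (2–18 cm) sprayed at the same time. Paddy: flooded, treated at 2-leaf stage. Formulation: non-phytotoxic solvent with surfactant. Greenhouse 13–15 days; visual 0–100 score relative to controls.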
# ducksalad = experiment: Test B flooded paddy test; type: in vivo, Heteranthera limosa; settings: 125 g ai/ha, scale 0 to 100 (0 no effect, 100 complete control)
# Summary of the method: (§2)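 Visual control ratings, 0–100 versus untreated controls, taken after 13 to 15 days in the greenhouse. Blackgrass received a postemergence spray at the 1- to 4-leaf stage (2–18 cm); ducksalad, umbrella sedge and barnyardgrass were flooded-paddy treated at 2 leaves.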
# wheat = experiment: Test B postemergence herbicide test; type: in vivo, Triticum aestivum; design: key to Wheat plant response rating: 0 = no effect, 100 = complete control
# Summary of the method: (§3)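 After treating 2-leaf paddy plants or 2–18 cm postemergence plants (1 to 4 leaves) with formulated chemical, researchers kept them in a greenhouse for 13–15 days. Effects were judged visually versus controls: 0 indicates none, 100 total control.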
# blackgrass = experiment: Test B postemergence herbicide test; type: in vivo, Alopecurus myosuroides
# Summary of the method: as §2
# wild oat = experiment: Test B postemergence herbicide test; type: in vivo, Avena fatua
# Summary of the method: as §3
# morningglory = experiment: Test B pre-/postemergence herbicide test; type: in vivo, Ipomoea coccinea
# Summary of the method: (§4)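 Response was scored visually 13 to 15 days after treatment against untreated greenhouse controls, 0 meaning no effect and 100 complete control. Formulations (solvent mixture plus surfactant) went onto soil after planting, onto foliage of 1- to 4-leaf plants, and onto 2-leaf plants in a flooded paddy set including rice and barnyardgrass.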
# Surinam grass = experiment: Test B pre-/postemergence herbicide test; type: in vivo, Urochloa decumbens
# Summary of the method: as §1
# lambsquarters = experiment: Test B pre-/postemergence herbicide test; type: in vivo, Chenopodium album
# Summary of the method: as §1
# large crabgrass = experiment: Test B pre-/postemergence herbicide test; type: in vivo, Digitaria sanguinalis
# Summary of the method: as §1
# rice = experiment: Test B flooded paddy test; type: in vivo, Oryza sativa; settings: 125 g ai/ha, scale 0 to 100 (0 no effect, 100 complete control)
# Summary of the method: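 Plants grow to 1- to 4-leaf stage (2–18 cm) for postemergence spraying, or to 2-leaf stage for the paddy test. Formulated compound is applied. Greenhouse holding lasts 13–15 days. Response is scored visually relative to controls, 0 no effect to 100 complete control; a dash means no result.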
# barnyardgrass [1] = experiment: Test B flooded paddy test; type: in vivo, Echinochloa crus-galli; settings: 125 g ai/ha, scale 0 to 100 (0 no effect, 100 complete control)
# Summary of the method: as §2
# barnyardgrass [2] = experiment: Test B pre-/postemergence herbicide test; type: in vivo, Echinochloa crus-galli; settings: Postemergence, scale 0 (no effect) to 100 (complete control)
# Summary of the method: as §4
# pigweed = experiment: Test B pre-/postemergence herbicide test; type: in vivo, Amaranthus retroflexus
# Summary of the method: as §1
# [3] = system: small flower umbrella sedge; experiment: Test B flooded paddy test; type: in vivo, Cyperus difformis; settings: 125 g ai/ha, scale 0 to 100 (0 no effect, 100 complete control)
# Summary of the method: as §2
# cocklebur = experiment: Test B pre-/postemergence herbicide test; type: in vivo, Xanthium strumarium
# Summary of the method: as §4
# corn = experiment: Test B pre-/postemergence herbicide test; type: in vivo, Zea mays
# Summary of the method: as §1
# velvetleaf = experiment: Test B pre-/postemergence herbicide test; type: in vivo, Abutilon theophrasti
# Summary of the method: as §1
# [4] = Postemergence, 500 g ai/ha, scale 0 (no effect) to 100 (complete control)
# [5] = postemergence, 125 g ai/ha, scale 0 to 100
# [6] = 500 g ai/ha, scale 0 to 100, 0 no effect, 100 complete control, preemergence
SMILES,"Foxtail, Giant plant response rating (giant foxtail; [4])","Foxtail, Giant plant response rating (giant foxtail; [5])",Ducksalad plant response rating (ducksalad),Wheat plant response rating (wheat; [6]),Wheat plant response rating (wheat; [4]),Wheat plant response rating (wheat; [5]),Blackgrass plant response rating (blackgrass; [4]),Blackgrass plant response rating (blackgrass; [5]),"Oat, Wild plant response rating (wild oat; [4])","Oat, Wild plant response rating (wild oat; [5])",Morningglory plant response rating (morningglory; [4]),Morningglory plant response rating (morningglory; [5]),Surinam Grass plant response rating (Surinam grass; [4]),Surinam Grass plant response rating (Surinam grass; [5]),Lambsquarters plant response rating (lambsquarters; [4]),Lambsquarters plant response rating (lambsquarters; [5]),"Crabgrass, Large plant response rating (large crabgrass; [4])","Crabgrass, Large plant response rating (large crabgrass; [5])",Rice plant response rating (rice),Barnyardgrass plant response rating (barnyardgrass [1]),further results
CCNC(=O)c1cccc(NC(=O)c2nn(C(C)(C)C)nc2Br)c1 [Compound 434],30,20,70,90,50,40,50,30,60,50,70,60,20,10,70,40,30,20,70,60,"Barnyardgrass plant response rating (barnyardgrass [2]; 125 g ai/ha): 10; Barnyardgrass plant response rating (barnyardgrass [2]; 500 g ai/ha): 30; Pigweed plant response rating (pigweed; [4]): 60; Pigweed plant response rating (pigweed; [5]): 40; Sedge, Umbrella plant response rating [3]: 90; Cocklebur plant response rating (cocklebur; [4]): 70; Cocklebur plant response rating (cocklebur; [5]): 50; Corn plant response rating (corn; [4]): 40; Corn plant response rating (corn; [5]): 40; Velvetleaf plant response rating (velvetleaf; [4]): 20; Velvetleaf plant response rating (velvetleaf; [5]): 10"
CC(C)(C)n1nc(Br)c(C(=O)Nc2cccc(C(=O)NC3CC3)c2)n1 [Compound 435],30,20,0,10,60,20,30,20,60,50,90,70,30,20,60,50,30,10,0,0,"Barnyardgrass plant response rating (barnyardgrass [2]; 125 g ai/ha): 10; Barnyardgrass plant response rating (barnyardgrass [2]; 500 g ai/ha): 10; Pigweed plant response rating (pigweed; [4]): 60; Pigweed plant response rating (pigweed; [5]): 40; Sedge, Umbrella plant response rating [3]: 0; Cocklebur plant response rating (cocklebur; [4]): 20; Cocklebur plant response rating (cocklebur; [5]): 20; Corn plant response rating (corn; [4]): 30; Corn plant response rating (corn; [5]): 20; Velvetleaf plant response rating (velvetleaf; [4]): 20; Velvetleaf plant response rating (velvetleaf; [5]): 10"
C=CCNC(=O)c1ccc(F)c(N(C(C)=O)C(=O)c2cc(C(C)(C)C)nn2CC)c1 [Compound 443],40,30,70,100,50,40,40,30,60,40,60,50,20,20,80,70,30,20,70,80,"Barnyardgrass plant response rating (barnyardgrass [2]; 125 g ai/ha): 20; Barnyardgrass plant response rating (barnyardgrass [2]; 500 g ai/ha): 30; Pigweed plant response rating (pigweed; [4]): 80; Pigweed plant response rating (pigweed; [5]): 60; Sedge, Umbrella plant response rating [3]: 80; Cocklebur plant response rating (cocklebur; [4]): 80; Cocklebur plant response rating (cocklebur; [5]): 50; Corn plant response rating (corn; [4]): 20; Corn plant response rating (corn; [5]): 20; Velvetleaf plant response rating (velvetleaf; [4]): 50; Velvetleaf plant response rating (velvetleaf; [5]): 50"
C=Cc1nn(C(C)(C)C)nc1C(=O)Nc1cccc(C(=O)N(C)C)c1 [Compound 445],30,30,80,100,50,30,50,40,60,40,80,60,30,20,80,60,40,30,80,90,"Barnyardgrass plant response rating (barnyardgrass [2]; 125 g ai/ha): 30; Barnyardgrass plant response rating (barnyardgrass [2]; 500 g ai/ha): 40; Pigweed plant response rating (pigweed; [4]): 60; Pigweed plant response rating (pigweed; [5]): 50; Sedge, Umbrella plant response rating [3]: 80; Cocklebur plant response rating (cocklebur; [4]): 80; Cocklebur plant response rating (cocklebur; [5]): 40; Corn plant response rating (corn; [4]): 40; Corn plant response rating (corn; [5]): 20; Velvetleaf plant response rating (velvetleaf; [4]): 50; Velvetleaf plant response rating (velvetleaf; [5]): 50"
